Test results from PubChem BioAssay AID2060508 (Molecular Pharmacology Branch, DTP, NCI, 2025).

Tested on: 454973-116-R2-J3-PDC spheroids, viability, % test/control
Test: Anticancer human tumor 454973-116-R2-J3-PDC patient-derived pancreatic carcinoma cell line growth inhibition [GQUAD]
Details: spheroids with HUVEC and MSC; for IC50: curve of first compound; for viability, T/C: stronger effect = lower value
Procedure, shortened: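 Tumor cells were grown as complex spheroids with HUVEC endothelial cells and mesenchymal stem cells as stroma. G-quadruplex stabilizers were combined with targeted agents over half-log dilutions from near the clinical Cmax, or from 10 microM.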

[1] = second compound 0.0316 µM, first compound 0.0316 µM
[2] = second compound 0.0316 µM, first compound 0.316 µM
[3] = second compound 0.1 µM, first compound 0.0316 µM
[4] = second compound 0.1 µM, first compound 0.316 µM
[5] = second compound 0.316 µM, first compound 0.0316 µM
[6] = second compound 0.316 µM, first compound 0.316 µM
[7] = second compound 1 µM, first compound 0.0316 µM
[8] = second compound 1 µM, first compound 0.316 µM
[9] = second compound 3.16 µM, first compound 0.0316 µM
[10] = second compound 3.16 µM, first compound 0.316 µM
[11] = second compound 10 µM, first compound 0.0316 µM
[12] = second compound 10 µM, first compound 0.316 µM
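Also: spheroids exposed to compounds for seven days.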
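For viability, T/C in this document: 100% = DMSO vehicle control viability.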

C=CCn1c(=O)c2cnc(Nc3ccc(N4CCN(C)CC4)cc3)nc2n1-c1cccc(C(C)(C)O)n1 + CN(C)c1ccc(Nc2c3ccc(NC(=O)CCN4CCCC4)cc3nc3cc(NC(=O)CCN4CCCC4)ccc23)cc1
IC50 (second compound 0.0316 µM): 433 nM | IC50 (second compound 0.1 µM): 350 nM | IC50 (second compound 0.316 µM): 399 nM | IC50 (second compound 1 µM): 365 nM | IC50 (second compound 3.16 µM): 423 nM | IC50 (second compound 10 µM): 431 nM | viability, T/C [1]: 109% | viability, T/C (second compound 0.0316 µM, first compound 0.1 µM): 89.4% | viability, T/C [2]: 65.3% | viability, T/C (second compound 0.0316 µM, first compound 1 µM): 16.2% | viability, T/C (second compound 0.0316 µM, first compound 3.16 µM): 7.05% | viability, T/C (second compound 0.0316 µM, first compound 10 µM): 8.82% | viability, T/C [3]: 108% | viability, T/C (second compound 0.1 µM, first compound 0.1 µM): 98.7% | viability, T/C [4]: 51.8% | viability, T/C (second compound 0.1 µM, first compound 1 µM): 19.7% | viability, T/C (second compound 0.1 µM, first compound 3.16 µM): 6.15% | viability, T/C (second compound 0.1 µM, first compound 10 µM): 9.87% | viability, T/C [5]: 99.4% | viability, T/C (second compound 0.316 µM, first compound 0.1 µM): 90.7% | viability, T/C [6]: 59.2% | viability, T/C (second compound 0.316 µM, first compound 1 µM): 15.8% | viability, T/C (second compound 0.316 µM, first compound 3.16 µM): 6.5% | viability, T/C (second compound 0.316 µM, first compound 10 µM): 9.33% | viability, T/C [7]: 82.9% | viability, T/C (second compound 1 µM, first compound 0.1 µM): 89.5% | viability, T/C [8]: 55.6% | viability, T/C (second compound 1 µM, first compound 1 µM): 11.3% | viability, T/C (second compound 1 µM, first compound 3.16 µM): 7.68% | viability, T/C (second compound 1 µM, first compound 10 µM): 9.81% | viability, T/C [9]: 85.2% | viability, T/C (second compound 3.16 µM, first compound 0.1 µM): 83.2% | viability, T/C [10]: 61.9% | viability, T/C (second compound 3.16 µM, first compound 1 µM): 14.7% | viability, T/C (second compound 3.16 µM, first compound 3.16 µM): 8.4% | viability, T/C (second compound 3.16 µM, first compound 10 µM): 12.1% | viability, T/C [11]: 71.4% | viability, T/C (second compound 10 µM, first compound 0.1 µM): 78.3% | viability, T/C [12]: 57.8% | viability, T/C (second compound 10 µM, first compound 1 µM): 25.7% | viability, T/C (second compound 10 µM, first compound 3.16 µM): 11.2% | viability, T/C (second compound 10 µM, first compound 10 µM): 10.8%

CC[C@@]1(O)C(=O)OCc2c1cc1n(c2=O)Cc2cc3c(CN(C)C)c(O)ccc3nc2-1 + CN(C)c1ccc(Nc2c3ccc(NC(=O)CCN4CCCC4)cc3nc3cc(NC(=O)CCN4CCCC4)ccc23)cc1
IC50 (second compound 0.0316 µM): 45.3 nM | IC50 (second compound 0.1 µM): 39.5 nM | IC50 (second compound 0.316 µM): 30.3 nM | IC50 (second compound 1 µM): 32.7 nM | IC50 (second compound 3.16 µM): 29.9 nM | IC50 (second compound 10 µM): 28.8 nM | viability, T/C (second compound 0.0316 µM, first compound 0.000999 µM): 97.5% | viability, T/C (second compound 0.0316 µM, first compound 0.00316 µM): 97.7% | viability, T/C (second compound 0.0316 µM, first compound 0.00999 µM): 99.5% | viability, T/C [1]: 64% | viability, T/C (second compound 0.0316 µM, first compound 0.0999 µM): 18.2% | viability, T/C [2]: 20.1% | viability, T/C (second compound 0.1 µM, first compound 0.000999 µM): 111% | viability, T/C (second compound 0.1 µM, first compound 0.00316 µM): 102% | viability, T/C (second compound 0.1 µM, first compound 0.00999 µM): 88.4% | viability, T/C [3]: 60.6% | viability, T/C (second compound 0.1 µM, first compound 0.0999 µM): 18.2% | viability, T/C [4]: 20.5% | viability, T/C (second compound 0.316 µM, first compound 0.000999 µM): 101% | viability, T/C (second compound 0.316 µM, first compound 0.00316 µM): 111% | viability, T/C (second compound 0.316 µM, first compound 0.00999 µM): 82.1% | viability, T/C [5]: 51.3% | viability, T/C (second compound 0.316 µM, first compound 0.0999 µM): 23.4% | viability, T/C [6]: 23% | viability, T/C (second compound 1 µM, first compound 0.000999 µM): 99.3% | viability, T/C (second compound 1 µM, first compound 0.00316 µM): 89.8% | viability, T/C (second compound 1 µM, first compound 0.00999 µM): 87.1% | viability, T/C [7]: 51.7% | viability, T/C (second compound 1 µM, first compound 0.0999 µM): 20.3% | viability, T/C [8]: 21.7% | viability, T/C (second compound 3.16 µM, first compound 0.000999 µM): 98.7% | viability, T/C (second compound 3.16 µM, first compound 0.00316 µM): 82.4% | viability, T/C (second compound 3.16 µM, first compound 0.00999 µM): 83% | viability, T/C [9]: 47.7% | viability, T/C (second compound 3.16 µM, first compound 0.0999 µM): 27.6% | viability, T/C [10]: 23.4% | viability, T/C (second compound 10 µM, first compound 0.000999 µM): 83.9% | viability, T/C (second compound 10 µM, first compound 0.00316 µM): 71.8% | viability, T/C (second compound 10 µM, first compound 0.00999 µM): 61.5% | viability, T/C [11]: 53.6% | viability, T/C (second compound 10 µM, first compound 0.0999 µM): 31% | viability, T/C [12]: 25.7%
